Starred links: 1 amine or outer side, 2 acyl side, 3 side chain; linkers in the order of their positions; H or OH if unused. Positions of bridges follow the written chain, without caps; N, C: chain ends. Non-standard residues stand in square brackets, D forms with d. Residues, ends and D or L forms follow the SMILES beside them. Chains are numbered I, II in the order given. Actinocin(9to1) = Cc1c2oc3c(C)ccc(C(=O)[*:1])c3nc-2c(C(=O)[*:2])c(N)c1=O; NMeV = CN[C@H](C(=O)O)C(C)C; Sar = CNCC(=O)O
Legend:
[1] = target: T1, Solute carrier organic anion transporter family member 1B1 (Homo sapiens, UniProt Q9Y6L6); details: chinese hamster, cho, 10 µM
T1 sequence (Q9Y6L6 whole entry): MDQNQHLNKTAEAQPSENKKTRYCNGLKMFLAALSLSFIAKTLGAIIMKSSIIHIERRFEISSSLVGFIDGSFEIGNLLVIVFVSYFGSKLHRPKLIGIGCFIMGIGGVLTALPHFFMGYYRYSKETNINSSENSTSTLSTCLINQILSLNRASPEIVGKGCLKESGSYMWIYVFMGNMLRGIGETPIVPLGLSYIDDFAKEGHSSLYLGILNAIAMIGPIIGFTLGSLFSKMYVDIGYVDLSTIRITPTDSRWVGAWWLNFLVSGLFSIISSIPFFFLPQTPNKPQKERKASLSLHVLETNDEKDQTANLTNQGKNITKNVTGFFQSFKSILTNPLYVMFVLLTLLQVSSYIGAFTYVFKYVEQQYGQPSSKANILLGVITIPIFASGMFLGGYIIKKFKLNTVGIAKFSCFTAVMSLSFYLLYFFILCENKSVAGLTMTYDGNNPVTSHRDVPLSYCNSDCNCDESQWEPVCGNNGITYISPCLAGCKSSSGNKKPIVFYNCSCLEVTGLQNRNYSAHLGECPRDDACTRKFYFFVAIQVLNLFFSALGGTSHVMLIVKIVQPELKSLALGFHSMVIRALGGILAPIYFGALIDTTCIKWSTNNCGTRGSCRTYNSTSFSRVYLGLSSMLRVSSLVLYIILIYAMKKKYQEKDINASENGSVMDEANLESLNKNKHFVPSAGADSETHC

[2] = target: T2, Solute carrier organic anion transporter family member 1B3 (Homo sapiens, UniProt Q9NPD5); details: chinese hamster, cho, 10 µM
T2 sequence (Q9NPD5 whole entry): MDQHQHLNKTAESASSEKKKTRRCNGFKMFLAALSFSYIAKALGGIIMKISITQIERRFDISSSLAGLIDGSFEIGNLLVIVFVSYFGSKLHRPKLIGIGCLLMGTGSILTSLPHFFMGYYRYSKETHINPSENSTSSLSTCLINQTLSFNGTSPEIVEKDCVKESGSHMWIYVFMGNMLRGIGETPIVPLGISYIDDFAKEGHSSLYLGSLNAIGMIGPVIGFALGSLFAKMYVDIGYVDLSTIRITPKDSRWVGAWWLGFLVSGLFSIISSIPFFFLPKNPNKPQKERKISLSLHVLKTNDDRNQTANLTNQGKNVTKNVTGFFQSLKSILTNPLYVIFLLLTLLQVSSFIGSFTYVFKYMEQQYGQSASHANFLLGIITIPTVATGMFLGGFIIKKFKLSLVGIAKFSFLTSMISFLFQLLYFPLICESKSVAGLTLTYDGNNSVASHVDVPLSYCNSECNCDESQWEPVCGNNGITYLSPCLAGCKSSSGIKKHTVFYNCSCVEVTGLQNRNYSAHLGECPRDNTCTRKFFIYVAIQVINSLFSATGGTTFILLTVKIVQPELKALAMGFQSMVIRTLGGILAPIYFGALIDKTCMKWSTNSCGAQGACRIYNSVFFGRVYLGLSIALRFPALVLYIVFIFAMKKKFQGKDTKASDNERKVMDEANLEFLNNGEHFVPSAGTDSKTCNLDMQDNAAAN

Structure (SMILES)	residual activity [1]	residual activity [2]
NC1=NCCN1CC(=O)O [CYCLOCREATINE]	108.2%	127.5%
NC1(C(=O)O)CCCC1 [CYCLOLEUCINE]	99.09%	108.5%
CN(C)CCOC(=O)C(c1ccccc1)C1(O)CCCC1.Cl (centres undefined) [CYCLOPENTOLATE HYDROCHLORIDE]	87.23%	100.2%
CO[C@H]1C[C@H](O[C@H]2CC[C@]3(C=O)[C@H]4CC[C@]5(C)[C@@H](C6=CC(=O)OC6)CC[C@]5(O)[C@@H]4CC[C@]3(O)C2)O[C@H](C)[C@H]1O [CYMARIN]	87.74%	87.59%
CC(=O)[C@@]1(O)CC[C@H]2[C@@H]3C=C(Cl)C4=CC(=O)[C@@H]5C[C@@H]5[C@]4(C)[C@H]3CC[C@@]21C [CYPROTERONE]	30.6%	112.2%
Cl.Cl.NCCSSCCN [CYSTAMINE DIHYDROCHLORIDE]	111.3%	89.2%
Nc1ccn([C@@H]2O[C@H](CO)[C@@H](O)[C@@H]2O)c(=O)n1 [CYTARABINE]	78.64%	95.76%
Nc1ccn([C@@H]2O[C@H](CO)[C@@H](O)[C@H]2O)c(=O)n1 [CYTIDINE]	99.44%	114%
O=c1cccc2n1C[C@@H]1CNC[C@H]2C1 [CYTISINICLINE]	99.71%	106.2%
N[C@H](Cc1ccccc1)C(=O)O [D-PHENYLALANINE]	73.08%	84.71%
CN(C)/N=N/c1[nH]cnc1C(N)=O [DACARBAZINE]	97.65%	90.13%
COC(=O)c1c(Cl)c(Cl)c(C(=O)OC)c(Cl)c1Cl [DACTHAL]	103.5%	106.6%
Cc1c2oc3c(C)ccc(C(=O)N[C@@H]4C(=O)N[C@H](C(C)C)C(=O)N5CCC[C@H]5C(=O)N(C)CC(=O)N(C)[C@@H](C(C)C)C(=O)O[C@@H]4C)c3nc-2c(C(=O)N[C@@H]2C(=O)N[C@H](C(C)C)C(=O)N3CCC[C@H]3C(=O)N(C)CC(=O)N(C)[C@@H](C(C)C)C(=O)O[C@@H]2C)c(N)c1=O [DACTINOMYCIN] (I: T[dV]P[Sar][NMeV] / II: T[dV]P[Sar][NMeV]; ester I:1-I:C, II:1-II:C; linker I:N-II:N via Actinocin(9to1))	57.98%	85.16%
O=c1c(-c2ccc(O)cc2)coc2cc(O)ccc12 [DAIDZEIN]	139.3%	103.8%
C=CC(C1=CC(=O)C(OC)=CC1=O)c1ccc(O)cc1 (centres undefined) [DALBERGIONE, 4-METHOXY-4'-HYDROXY-]	114.1%	246.6%
C=CC(C1=CC(=O)C=CC1=O)c1ccccc1 (centres undefined) [DALBERGIONE]	72.19%	269.8%
C#C[C@]1(O)CC[C@H]2[C@@H]3CCC4=Cc5oncc5C[C@]4(C)[C@H]3CC[C@@]21C [DANAZOL]	80.9%	95.7%
O=C1CN(/N=C/c2ccc(-c3ccc([N+](=O)[O-])cc3)o2)C(=O)[N-]1.[Na+] [DANTROLENE SODIUM]	111.7%	114.3%
O=c1ccc2ccc(O)c(O)c2o1 [DAPHNETIN]	66.34%	94.36%
Nc1ccc(S(=O)(=O)c2ccc(N)cc2)cc1 [DAPSONE]	78.21%	84.17%
CN(C)C(=O)Nc1ccc(Cl)c(Cl)c1 [DCMU]	105.4%	99%

Structure (SMILES)	residual activity [1]	residual activity [2]
CC1(C)C(=O)C=C[C@]2(C)[C@H]3CC[C@@]4(C)[C@H](c5ccoc5)OC(=O)[C@H]5O[C@]54[C@]3(C)C(=O)C[C@@H]12 [DEACETOXY-7-OXOGEDUNIN]	40.28%	85.14%
CC1(C)C(=O)C=C[C@]2(C)[C@H]3CC[C@@]4(C)[C@H](c5ccoc5)OC(=O)[C@H]5O[C@]54[C@]3(C)[C@H](O)C[C@@H]12 [DEACETYLGEDUNIN]	74.35%	60.92%
CC(=O)N(O)CCCCCNC(=O)CCC(=O)N(O)CCCCCNC(=O)CCC(=O)N(O)CCCCCN.CS(=O)(=O)O [DEFEROXAMINE MESYLATE]	116.4%	98.92%
COc1cc2c(cc1OC)[C@@H]1C(=O)c3ccc4c(c3O[C@@H]1CO2)C=CC(C)(C)O4 [DEGUELIN]	99.89%	75.69%
CC(C)c1ccc2c(c1)CC[C@H]1[C@](C)(C(N)=O)CCC[C@]21C [DEHYDROABIETAMIDE]	81.19%	106.2%
C=CCCCCCCCCCCC/C=C/C(O)COC(C)=O (centres undefined) [DEHYDROAVOCATIN-1-ACETATE]	134.1%	107.3%
C[C@H](CCC(=O)O)[C@H]1CC[C@H]2[C@@H]3C(=O)C[C@@H]4CC(=O)CC[C@]4(C)[C@H]3CC(=O)[C@]12C [DEHYDROCHOLIC ACID]	80.16%	88.23%
COc1cc2c(cc1OC)-c1c(oc3c4c(ccc3c1=O)OC(C(C)C)C4)CO2 (centres undefined) [DEHYDRODIHYDROROTENONE]	89.82%	95.69%
CC(=O)O[C@H]1CC[C@@]2(C)C(=CC[C@@H]3[C@@H]2CC[C@]2(C)C(=O)CC[C@@H]32)C1 [DEHYDROEPIANDROSTERONE ACETATE]	97.61%	140.4%
C=C(C)[C@H]1Cc2c(ccc3c(=O)c4c(oc23)COc2cc(OC)c(OC)cc2-4)O1 [DEHYDROROTENONE]	113.5%	92.82%
COc1ccc2c(c1)OCc1c-2oc2cc(OC)ccc12 [DEHYDROVARIABILIN]	136.9%	89.07%
CCN1C[C@]2(C)CC[C@H](OC)[C@@]34C1[C@]1(OCO[C@@]15C[C@H](OC)[C@H]1C[C@]3(O)[C@@H]5[C@H]1OC)[C@@H](OC(C)=O)[C@H]24 [DELTALINE]	88.11%	103.5%
CN(C)[C@@H]1C(O)=C(C(N)=O)C(=O)[C@@]2(O)C(O)=C3C(=O)c4c(O)ccc(Cl)c4[C@@H](O)[C@H]3C[C@@H]12.Cl [DEMECLOCYCLINE HYDROCHLORIDE]	104.7%	90.61%
Nc1ncnc2c1ncn2[C@H]1C[C@H](O)[C@@H](CO)O1 [DEOXYADENOSINE]	112.3%	106.4%
CC1(C)C2CC(=O)O[C@@]3(C)C4=CC(=O)O[C@@H](c5ccoc5)[C@]4(C)CCC3[C@@]2(C)C=C[C@H]1O (some centres undefined) [DEOXYANDIROBIN LACTONE]	29.53%	53.06%
C=C1C2=CC(=O)O[C@@H](c3ccoc3)[C@]2(C)CCC1[C@@]1(C)C=CC(=O)C(C)(C)[C@@H]1CC(=O)OC (some centres undefined) [DEOXYANDIROBIN]	27.69%	42.8%
CC(=O)O[C@@H]1C=C[C@]2(C)C(C[C@@H](OC(C)=O)[C@]3(C)C4=CC(=O)O[C@H](c5ccoc5)[C@@]4(C)CCC23)C1(C)C (some centres undefined) [DEOXYGEDUNOL ACETATE]	23.25%	49.18%
Nc1nc2c(ncn2[C@H]2C[C@H](O)[C@@H](CO)O2)c(=O)[nH]1 [DEOXYGUANOSINE]	85.51%	90.97%
COc1ccc2c(c1)OCC(Cc1ccc(OC)c(OC(C)=O)c1)C2=O (centres undefined) [DEOXYSAPPANONE B 7,3'-DIMETHYL ETHER ACETATE]	122.7%	148.3%
COc1ccc2c(c1)OCC(Cc1ccc(OC)c(OC)c1)C2=O (centres undefined) [DEOXYSAPPANONE B TRIMETHYL ETHER]	174.5%	150.7%
Cc1cc(N)c2ccccc2[n+]1CCCCCCCCCC[n+]1c(C)cc(N)c2ccccc21.[Cl-].[Cl-] [DEQUALINIUM CHLORIDE]	158.8%	111.4%

— ChEMBL document CHEMBL3039007, “Structure-based identification of OATP1B1/3 inhibitors” (Mol Pharmacol, 2013)
